Measured values taken from US12178842B2, “PCSK9 antagonist compounds” (MERCK SHARP & DOHME LLC, priority 2019, dated 2024).

Tests used:
Format in all cases: binding
PCSK9 [1] = target: T1, PCSK9 (Homo sapiens, UniProt Q8NBP7); test: PCSK9 Alexa FRET Standard TR-FRET assay
T1 construct: biotin (biotinylated); purchased
Method: A solution containing 1 nM biotinylated PCSK9+2.5 nM Lance Streptavidin Europium (Strep-Eu) is made in 50 mM HEPES pH 7.4, 0.15 M NaCl, 5 mM CaCl2, 0.01% BSA, and 0.01% Surfactant P20. A separate solution containing 40 nM of the AlexaFluor tagged cyclic peptide is made in the same buffer system. An Echo is used to transfer 0.750 ul of compound to an assay plate followed by the addition of 15 ul of PCSK9+Stept-Eu and 15 ul of AF peptide. The final assay volume is 30.750 ul containing 0.5 nM PCSK9, 1.25 nM Strep-Eu, and 20 nM AF cyclic peptide. The reaction is incubated at room temperature for at least two hours prior to fluorescence measurements using an Envision Multilabel Reader. IC50 values are determined by fitting data to a sigmoidal dose-response curve using nonlinear regression. Ki is then calculated from the Ic50 and the KD of AF cyclic peptide. Counts (B-counts) of the europium-labeled PCSK9 are followed to observe if compounds are adversely PCSK9. A fall off of the B-counts likely indicates a false positive of inhibition. Data from this procedure is reported as “A=‘numerical value’ (nanomolar)”

PCSK9 [2] = target: T1, PCSK9; test: PCSK9 Alexa FRET Ultra TR-FRET assay
Method: A separate solution containing 1920 nM of the AlexaFluor tagged cyclic peptide is made in the same buffer system. […] The reaction is incubated at room temperature for at least two hours prior to fluorescence measurements using an Envision Multilabel Reader. IC50 values are determined by fitting data to a sigmoidal dose-response curve using nonlinear regression. Ki is then calculated from the Ic50 and the KD of AF cyclic peptide. Counts (B-counts) of the europium-labeled PCSK9 are followed to observe if compounds are adversely affecting PCSK9. A fall off of the B-counts is likely indicates a false positive of inhibition. Data from this procedure is reported as “Ki Ultra=‘numerical value’ (data reported is nanomolar)”

PCSK9 [3] = target: T1, PCSK9; test: PCSK9 Alexa FRET Plus TR-FRET assay
Method: A separate solution containing 1920 nM of the AlexaFluor tagged cyclic peptide is made in the same buffer system. […] The reaction is incubated at room temperature for at least two hours prior to fluorescence measurements using an Envision Multilabel Reader. IC50 values are determined by fitting data to a sigmoidal dose-response curve using nonlinear regression. Ki is then calculated from the Ic50 and the KD of AF cyclic peptide. Counts (B-counts) of the europium-labeled PCSK9 are followed to observe if compounds are adversely affecting PCSK9. A fall off of the B-counts is likely indicates a false positive of inhibition. Data from this procedure is reported as “P=‘numerical value’ (nanomolar)”

[4] = Ki calculated from IC50 and KD of AF cyclic peptide Reagent A, 0.5 nM PCSK9, 20 nM AF cyclic peptide, read-out: Alexa FRET Stdt TR-FRET
[5] = Ki Ultra, calculated from IC50 and KD of AF cyclic peptide, 0.5 nM PCSK9, 960 nM AF cyclic peptide, read-out: Alexa FRET Ultra TR-FRET
[6] = Ki calculated from IC50 and KD of AF cyclic peptide Reagent B, 0.5 nM PCSK9, 960 nM AF cyclic peptide, read-out: Alexa FRET Plus TR-FRET

T1 sequence (Q8NBP7 153-692): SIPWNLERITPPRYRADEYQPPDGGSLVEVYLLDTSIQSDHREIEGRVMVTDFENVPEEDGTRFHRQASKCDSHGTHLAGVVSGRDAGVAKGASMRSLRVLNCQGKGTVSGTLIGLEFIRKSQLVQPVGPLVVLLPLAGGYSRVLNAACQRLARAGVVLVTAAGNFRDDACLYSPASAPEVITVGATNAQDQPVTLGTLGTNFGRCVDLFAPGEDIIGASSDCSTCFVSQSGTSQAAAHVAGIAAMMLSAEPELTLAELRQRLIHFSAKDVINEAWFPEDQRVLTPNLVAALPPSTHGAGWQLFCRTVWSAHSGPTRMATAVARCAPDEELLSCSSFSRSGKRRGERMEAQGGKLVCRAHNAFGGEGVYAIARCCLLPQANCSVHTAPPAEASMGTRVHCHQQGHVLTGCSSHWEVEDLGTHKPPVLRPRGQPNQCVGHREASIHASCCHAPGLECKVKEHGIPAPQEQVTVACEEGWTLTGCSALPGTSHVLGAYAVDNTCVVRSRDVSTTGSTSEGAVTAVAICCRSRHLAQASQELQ

Compound	Ki (PCSK9 [1]; [4]) [pM]	Ki (PCSK9 [2]; [5]) [pM]	Ki (PCSK9 [3]; [6]) [pM]	Ki (PCSK9 [1]) [pM]	Ki (PCSK9 [2]) [pM]	Ki (PCSK9 [3]) [pM]
COc1ccc(C[C@@H]2NC(=O)[C@H]([C@@H](C)O)NC(=O)[C@@H]3[C@@H]4CCN3C(=O)[C@@H]3Cc5cn(c6ccc(F)cc56)C/C=C/CCCN(Cc5ccc(cc5)CCNC(=O)[C@]5(C)CCCN5C2=O)C(=O)CCC(=O)N[C@@H](C)C(=O)N[C@H](CNC(=O)CCOCCOCC[N+](C)(C)CCNC(=O)COCCOCCNC(=O)COCCOCCNC(=O)CC[C@H](NC(=O)CC[C@H](NC(=O)CCCCCCCCCCCCCCCCC(=O)O)C(=O)O)C(=O)O)C(=O)N[C@@H](Cc2cccc(c2)CNC(=O)CO4)C(=O)N3)cc1 [Ex-44]	< 1260	3	< 6			
COc1ccc(C[C@@H]2NC(=O)[C@H]([C@@H](C)O)NC(=O)[C@@H]3[C@@H]4CCN3C(=O)[C@@H]3Cc5cn(c6ccc(F)cc56)CCCCCCN(Cc5ccc(cc5)CCNC(=O)[C@]5(C)CCCN5C2=O)C(=O)CCC(=O)N[C@@H](C)C(=O)N[C@H](CNC(=O)COCCOCC[N+](C)(C)CCOCCNC(=O)COCCOCCNC(=O)COCCOCCNC(=O)CC[C@H](NC(=O)CC[C@H](NC(=O)CCCCCCCCCCCCCCC(=O)O)C(=O)O)C(=O)O)C(=O)N[C@@H](Cc2cccc(c2)CNC(=O)CO4)C(=O)N3)cc1 [Ex-47]	< 1260	3	< 6			
COc1ccc(C[C@@H]2NC(=O)[C@H]([C@@H](C)O)NC(=O)[C@@H]3[C@@H]4CCN3C(=O)[C@@H]3Cc5cn(c6ccc(F)cc56)CCCCCCN(Cc5ccc(cc5)CCNC(=O)[C@]5(C)CCCN5C2=O)C(=O)CCC(=O)N[C@@H](C)C(=O)N[C@H](CNC(=O)CCOCCOCC[N+](C)(C)CCNC(=O)COCCOCCNC(=O)CC[C@H](NC(=O)CC[C@H](NC(=O)CC[C@H](NC(=O)CCCCCCCCCCCCCCCCC(=O)O)C(=O)O)C(=O)O)C(=O)O)C(=O)N[C@@H](Cc2cccc(c2)CNC(=O)CO4)C(=O)N3)cc1 [Ex-48]	< 1260	9	< 6			
COc1ccc(C[C@@H]2NC(=O)[C@H]([C@@H](C)O)NC(=O)[C@@H]3[C@@H]4CCN3C(=O)[C@@H]3Cc5cn(c6ccc(F)cc56)CCCCCCN(Cc5ccc(cc5)CCNC(=O)[C@]5(C)CCCN5C2=O)C(=O)CCC(=O)N[C@@H](C)C(=O)N[C@H](CNC(=O)CCOCCOCC[N+](C)(C)CCNC(=O)COCCOCCNC(=O)COCCOCCNC(=O)CC[C@@H](NC(=O)CC[C@@H](NC(=O)CCCCCCCCCCCCCCCCC(=O)O)C(=O)O)C(=O)O)C(=O)N[C@@H](Cc2cccc(c2)CNC(=O)CO4)C(=O)N3)cc1 [Ex-49]		3	< 6	< 1260		
COc1ccc(C[C@@H]2NC(=O)[C@H]([C@@H](C)O)NC(=O)[C@@H]3[C@@H]4CCN3C(=O)[C@@H]3Cc5cn(c6ccc(F)cc56)CCCCCCN(Cc5ccc(cc5)CCNC(=O)[C@]5(C)CCCN5C2=O)C(=O)CCC(=O)N[C@@H](C)C(=O)N[C@H](CNC(=O)COCCOCC[N+](C)(C)CCNC(=O)COCCOCCNC(=O)COCCOCCNC(=O)CC[C@H](NC(=O)CCCCCCCCOCCCCCCCCC(=O)O)C(=O)O)C(=O)N[C@@H](Cc2cccc(c2)CNC(=O)CO4)C(=O)N3)cc1 [Ex-50]	< 1260				5	< 6
COc1ccc(C[C@@H]2NC(=O)[C@H]([C@@H](C)O)NC(=O)[C@@H]3[C@@H]4CCN3C(=O)[C@@H]3Cc5cn(c6ccc(F)cc56)CCCCCN(Cc5ccc(cc5)CCNC(=O)[C@]5(C)CCCN5C2=O)C(=O)CCC(=O)N[C@@H](C)C(=O)N[C@H](CNC(=O)CCOCCOCC[N+](C)(C)CCNC(=O)COCCOCCNC(=O)COCCOCCNC(=O)CC[C@H](NC(=O)CC[C@H](NC(=O)CCCCCCCCCCCCCCCCC(=O)O)C(=O)O)C(=O)O)C(=O)N[C@@H](Cc2cccc(c2)CNC(=O)CO4)C(=O)N3)cc1 [Ex-51]	< 1260				5	7
COc1ccc(C[C@@H]2NC(=O)[C@H]([C@@H](C)O)NC(=O)[C@@H]3[C@@H]4CCN3C(=O)[C@@H]3Cc5cn(c6ccc(F)cc56)CCCCCCN(Cc5ccc(cc5)CCNC(=O)[C@]5(C)CCCN5C2=O)C(=O)CCC(=O)N[C@@H](C)C(=O)N[C@H](CNC(=O)CCOCCOCC[N+](C)(C)CCNC(=O)Cc2c(C)n(C(=O)c5ccc(Cl)cc5)c5ccc(OC)cc25)C(=O)N[C@@H](Cc2cccc(c2)CNC(=O)CO4)C(=O)N3)cc1 [Ex-52]	< 1260	1	< 6			
COc1ccc(C[C@@H]2NC(=O)[C@H]([C@@H](C)O)NC(=O)[C@@H]3[C@@H]4CCN3C(=O)[C@@H]3Cc5cn(c6ccc(F)cc56)CCCCCCN(Cc5ccc(cc5)CCNC(=O)[C@]5(C)CCCN5C2=O)C(=O)CCC(=O)N[C@@H](C)C(=O)N[C@H](CNC(=O)COCCOCCNC(=O)CC[C@H](NC(=O)CCOCCOCC[N+](C)(C)CCNC(=O)COCCOCCNC(=O)COCCOCCNC(=O)CC[C@H](NC(=O)CCCCCCCCCCCCCCCCC(=O)O)C(=O)O)C(=O)O)C(=O)N[C@@H](Cc2cccc(c2)CNC(=O)CO4)C(=O)N3)cc1 [Ex-53]	< 1260				14	10

Continued, in another order:

Ki (PCSK9 [1]; [4]) [pM]	Ki (PCSK9 [2]; [5]) [pM]	Ki (PCSK9 [3]; [6]) [pM]	Compound	Ki (PCSK9 [1]) [pM]	Ki (PCSK9 [2]) [pM]	Ki (PCSK9 [3]) [pM]
< 1260	16	44	CCCCCCCCCCCCCCCC(=O)NCC[N+](C)(C)CCOCCOCCC(=O)NC[C@H]1NC(=O)[C@H](C)NC(=O)CCC(=O)N2CCCCCCn3cc(c4cc(F)ccc43)C[C@@H]3NC(=O)[C@H](Cc4cccc(c4)CNC(=O)CO[C@H]4CCN(C3=O)[C@@H]4C(=O)N[C@@H]([C@@H](C)O)C(=O)N[C@@H](Cc3ccc(OC)cc3)C(=O)N3CCC[C@@]3(C)C(=O)NCCc3ccc(cc3)C2)NC1=O [Ex-36]			
< 1260	12	13	CCCCCCCCCCCCCCCC(=O)NCC[N+](C)(C)CCOCCOCCC(=O)NCCOCCOCC(=O)NCCOCCOCC(=O)NC[C@H]1NC(=O)[C@H](C)NC(=O)CCC(=O)N2CCCCCCn3cc(c4cc(F)ccc43)C[C@@H]3NC(=O)[C@H](Cc4cccc(c4)CNC(=O)CO[C@H]4CCN(C3=O)[C@@H]4C(=O)N[C@@H]([C@@H](C)O)C(=O)N[C@@H](Cc3ccc(OC)cc3)C(=O)N3CCC[C@@]3(C)C(=O)NCCc3ccc(cc3)C2)NC1=O [Ex-38]			
< 1260	3	< 6	COc1ccc(C[C@@H]2NC(=O)[C@H]([C@@H](C)O)NC(=O)[C@@H]3[C@@H]4CCN3C(=O)[C@@H]3Cc5cn(c6ccc(F)cc56)CCCCCCN(Cc5ccc(cc5)CCNC(=O)[C@]5(C)CCCN5C2=O)C(=O)CCC(=O)N[C@@H](C)C(=O)N[C@H](CNC(=O)COCCOCCNC(=O)COCCOCCNC(=O)CCOCCOCC[N+](C)(C)CCNC(=O)CCCCCCCCCCCCCCC(=O)O)C(=O)N[C@@H](Cc2cccc(c2)CNC(=O)CO4)C(=O)N3)cc1 [Ex-39]			
< 1260	4	8	COc1ccc(C[C@@H]2NC(=O)[C@H]([C@@H](C)O)NC(=O)[C@@H]3[C@@H]4CCN3C(=O)[C@@H]3Cc5cn(c6ccc(F)cc56)CCCCCCN(Cc5ccc(cc5)CCNC(=O)[C@]5(C)CCCN5C2=O)C(=O)CCC(=O)N[C@@H](C)C(=O)N[C@H](CNC(=O)COCCOCC[N+](C)(C)CCNC(=O)COCCOCCNC(=O)COCCOCCNC(=O)CC[C@H](NC(=O)CCCCCCCCCCCCCCCCC(=O)O)C(=O)O)C(=O)N[C@@H](Cc2cccc(c2)CNC(=O)CO4)C(=O)N3)cc1 [Ex-40]			
< 1260	5	< 6	COc1ccc(C[C@@H]2NC(=O)[C@H]([C@@H](C)O)NC(=O)[C@@H]3[C@@H]4CCN3C(=O)[C@@H]3Cc5cn(c6ccc(F)cc56)CCCCCCN(Cc5ccc(cc5)CCNC(=O)[C@]5(C)CCCN5C2=O)C(=O)CCC(=O)N[C@@H](C)C(=O)N[C@H](CNC(=O)COCCOCCNC(=O)COCCOCCNC(=O)CC[C@H](NC(=O)CCCCCCCCCCCCCCC(=O)O)C(=O)O)C(=O)N[C@@H](Cc2cccc(c2)CNC(=O)CO4)C(=O)N3)cc1 [Ex-41]			
< 1260	10	< 6	COc1ccc(C[C@@H]2NC(=O)[C@H]([C@@H](C)O)NC(=O)[C@@H]3[C@@H]4CCN3C(=O)[C@@H]3Cc5cn(c6ccc(F)cc56)CCCCCCN(Cc5ccc(cc5)CCNC(=O)[C@]5(C)CCCN5C2=O)C(=O)CCC(=O)N[C@@H](C)C(=O)N[C@H](CNC(=O)COCCOCCNC(=O)COCCOCCNC(=O)CC[C@H](NC(=O)CC[C@H](NC(=O)CCCCCCCCCCCCCCC(=O)O)C(=O)O)C(=O)O)C(=O)N[C@@H](Cc2cccc(c2)CNC(=O)CO4)C(=O)N3)cc1 [Ex-42]			
